Assay results: US8048897B2, “Cyclohexane derivative, prodrug thereof and salt thereof, and therapeutic agent containing the same for diabetes” (Chugai Seiyaku Kabushiki Kaisha, priority 2004, dated 2011)
pIC50: −log10 of the molar value.

Molecular target: T1, human SGLT2 (Homo sapiens, UniProt P31639)
T1 construct: expressed in transfected cells; host or cells: CHO-K1
T1 sequence (P31639 1-672): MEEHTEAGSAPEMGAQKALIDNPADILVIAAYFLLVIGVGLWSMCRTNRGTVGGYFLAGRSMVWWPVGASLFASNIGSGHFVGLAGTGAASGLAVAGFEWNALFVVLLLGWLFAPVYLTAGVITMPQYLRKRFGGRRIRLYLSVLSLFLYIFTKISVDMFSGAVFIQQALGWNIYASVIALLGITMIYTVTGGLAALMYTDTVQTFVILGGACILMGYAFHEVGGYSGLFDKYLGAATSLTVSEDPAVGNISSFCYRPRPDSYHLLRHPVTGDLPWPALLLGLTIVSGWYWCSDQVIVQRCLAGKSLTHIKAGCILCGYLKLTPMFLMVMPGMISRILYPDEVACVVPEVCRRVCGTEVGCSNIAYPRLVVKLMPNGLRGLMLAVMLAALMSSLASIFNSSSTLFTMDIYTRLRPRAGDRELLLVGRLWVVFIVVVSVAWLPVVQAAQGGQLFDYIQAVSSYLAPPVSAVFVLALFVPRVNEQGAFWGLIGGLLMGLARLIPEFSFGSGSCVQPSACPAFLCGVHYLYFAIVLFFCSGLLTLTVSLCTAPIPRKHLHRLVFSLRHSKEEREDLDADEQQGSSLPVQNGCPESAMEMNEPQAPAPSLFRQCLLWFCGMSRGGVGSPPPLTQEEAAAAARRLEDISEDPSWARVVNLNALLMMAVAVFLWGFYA
Test: Methyl-α-D-glucopyranoside intake inhibition activity in human SGLT2 stable expression CHO cells
Type: cell-based
Settings: methyl-α-D-(U-14C)glucopyranoside intake, 37° C., 45 minutes
Protocol: Test for Confirming Action of Inhibiting Human Na^+-Glucose Co-Transporters (SGLT1 and SGLT2)
(2) Preparation of Human SGLT2 Expression Vector
PCR was performed by KOD+DNA polymerase by taking a human kidney-derived cDNA library (a product of Clontech) as a template with the use of a synthesized DNA primer to amplify human SGLT2 cDNA. […] From the proliferated E. coli, a plasmid was purified according to the usual way. By taking this plasmid as a template, PCR was performed by KOD+DNA polymerase with the use of a synthetic DNA primer into which restriction enzyme recognition sites had been introduced to amplify human SGLT2 cDNA (a fragment added with Xho I recognition site on the upstream side and a Hind III recognition site on the downstream side). This amplified fragment was subjected to Xho I and Hind III digestion, and the digested fragments were connected to their recognition sites of the expression vector pcDNA 3.1(−) with the use of the Rapid DNA Ligation kit. The connected expression vector was introduced into E. coli competent cells (DH5α) and proliferated in an ampicillin-containing LB medium to obtain a human SGLT2 expression vector according to the usual way.
(3) Preparation of Human SGLT1 Stable Expression Cell and Human SGLT2 Stable Expression Cell
The human SGLT1 expression vector or the human SGLT2 expression vector which was digested with restriction enzyme Pvu I was introduced into CHO-K1 cells with the use of FuGene (a product of Roche Diagonostics). After introduction of the gene, the cells were incubated in a DMEM medium (a product of Gibco) containing penicillin (50 U/mL, a product of Sigma), streptomycin (50 mg/L, a product of Sigma), Geneticin (200 mg/L, a product of Nakalai Tesque) and 20% bovine fetal serum in the presence of 5% CO2 at 37° C. for about three weeks to obtain Genticin-resistant clones. From these clones, cells capable of stably expressing human SGLT1 or the human SGLT2 were selected and obtained by using sodium dependent sugar (methyl-α-D-glucopyranoside) intake activity as an index.
(4) Measurement of Methyl-α-D-glucopyranoside Intake Inhibition Activity
The human SGLT1 stable expression CHO cells or the human SGLT2 stable expression CHO cells was seeded in a 96-well plate to a density of 30,000 to 40,000 cells/well and incubated for four to six days. Next, the medium of the culture plate was removed, and a pretreatment buffer (a buffer containing 140 mM of choline chloride, 2 mM of potassium chloride, 1 mM of calcium chloride, 1 mM of magnesium chloride, 10 mM of 2-[4-(2-hydroxyethyl)-1-piperazinyl]ethanesulfonic acid and tris(hydroxymethyl)-aminomethane and having a pH of 7.4) was added in an amount of 150 μL per well and then left to stand at 37° C. for 20 minutes. The pretreatment buffer was removed and the pretreatment buffer was again added in an amount of 50 μL per well and then left to stand at 37° C. for 20 minutes. To 100 mL of a buffer (a buffer containing 140 mM of sodium chloride, 1 mM of potassium chloride, 1 mM of magnesium chloride, 1 mM of methyl-α-D-glucopyranoside, 10 mM of 2-[4-(2-hydroxyethyl)-1-piperazinyl]ethanesulfonic acid and tris(hydroxymethyl)aminomethane and having a pH of 7.4), there was added and mixed 6.3 mL of methyl-α-D-(U-^14C)glucopyranoside (200 mCi/L, a product of Amersham Pharmacia Biotech) to prepare an intake buffer, and a test compound was dissolved in this intake buffer and the resulting solution was used as a buffer for determining inhibition activity. Further, as a control, a test compound-free intake buffer was used. Furthermore, in order to determine a basic intake in the absence of the test compound and sodium, a basic intake buffer containing 140 mM of choline chloride instead of the sodium chloride was prepared in the same manner and used in the determina-tion. […]

Structure (SMILES) | pIC50
CCc1ccc(Cc2sccc2O[C@@H]2C[C@H](CO)[C@@H](O)[C@H](O)[C@H]2O)cc1 [Example 55, [2-(4-Ethylbenzyl)thiophen-3-yl]-5a-carba-β-D-gluco-pyranoside] | 7.77
CCOc1ccc(Cc2ccc(CC)cc2)cc1[C@@H]1C[C@H](CO)[C@@H](O)[C@H](O)[C@H]1O [Example 68, (1R,2R,3S,4S,6R)-4-[2-Ethoxy-5-(4-ethylbenzyl)phenyl]-6-(hydroxymethyl)cyclohexane-1,2,3-triol] | 7.74
C=Cc1ccc(Cc2ccccc2O[C@@H]2C[C@H](CO)[C@@H](O)[C@H](O)[C@H]2O)cc1 [Example 44, [2-(4-Vinylbenzyl)phenyl]-5a-carba-β-D-glucopyranoside] | 7.80
COc1ccc(Cc2ccc(C)cc2O[C@@H]2C[C@H](CO)[C@@H](O)[C@H](O)[C@H]2O)cc1 [Example 54, [2-(4-Methoxybenzyl)-5-methylphenyl]-5a-carba-β-D-gluco-pyranoside] | 7.85
COc1ccc(Cc2cccc([C@@H]3C[C@H](CO)[C@@H](O)[C@H](O)[C@H]3O)c2)cc1 (single isomer, unassigned) [Example 2] | 6.95
CCc1ccc(Cc2ccccc2O[C@@H]2C[C@H](CO)[C@@H](O)[C@H](O)[C@H]2O)cc1 [Example 25, [2-(4-Ethylbenzyl)phenyl]-5a-carba-β-D-glucopyranoside] | 7.51
COc1ccc(Cc2ccccc2O[C@@H]2C[C@H](CO)[C@@H](O)[C@H](O)[C@H]2O)cc1 [Example 1, [2-(4-Methoxybenzyl)phenyl]-5a-carba-β-D-glucopyranoside] | 7.21
CSc1ccc(Cc2ccccc2O[C@@H]2C[C@H](CO)[C@@H](O)[C@H](O)[C@H]2O)cc1 [Example 11, [2-(4-Methylsulfanylbenzyl)phenyl]-5a-carba-β-D-gluco-pyranoside] | 7.85
COc1ccc(Cc2c(F)cccc2O[C@@H]2C[C@H](CO)[C@@H](O)[C@H](O)[C@H]2O)cc1 [Example 12] | 7.74

The next molecules have a higher pIC50 than those just listed; values first:

pIC50 | Structure (SMILES)
7.96 | CCc1ccc(Cc2ccc(OC)c([C@]3(O)C[C@H](CO)[C@@H](O)[C@H](O)[C@H]3O)c2)cc1 [Example 73, (1R,2R,3S,4R,5R)-1-[5-(4-Ethylbenzyl)-2-methoxyphenyl]-5-(hydroxymethyl)cyclohexane-1,2,3,4-tetraol]
8.15 | OCC1=C[C@@H](Oc2ccccc2Cc2ccc(C3CC3)cc2)[C@H](O)[C@@H](O)[C@@H]1O [Example 62, (1R,2S,3R,6R)-6-[2-(4-Cyclopropylbenzyl)phenoxy]-4-(hydroxymethyl)cyclohex-4-ene-1,2,3-triol]
8.15 | OC[C@H]1C[C@@H](Oc2ccccc2Cc2ccc(C3CC3)cc2)[C@H](O)[C@@H](O)[C@@H]1O [Example 8, [2-(4-Cyclopropylbenzyl)phenyl]-5a-carba-β-D-glucopyranoside]
8.11 | OC[C@H]1C[C@@H](Oc2cnccc2Cc2ccc(C3CC3)cc2)[C@H](O)[C@@H](O)[C@@H]1O [Example 42, [4-(4-Cyclopropylbenzyl)pyridin-3-yl]-5a-carba-β-D-gluco-pyranoside]
8.05 | Cc1cc(O[C@@H]2C[C@H](CO)[C@@H](O)[C@H](O)[C@H]2O)c(Cc2ccc(C3CC3)cc2)s1 [Example 59, [2-(4-Cyclopropylbenzyl)-5-methylthiophen-3-yl]-5a-carba-β-D-glucopyranoside]
8.18 | CCc1ccc(Cc2cccc(C3=C[C@H](CO)[C@@H](O)[C@H](O)[C@H]3O)c2)cc1 [Example 64, (1R,2S,3S,6R)-4-[3-(4-Ethylbenzyl)phenyl]-6-(hydroxy-methyl)cyclohex-4-ene-1,2,3-triol]
8.13 | CCc1ccc(Cc2cc([C@@H]3C[C@H](CO)[C@@H](O)[C@H](O)[C@H]3O)c(OC)cc2OC)cc1 [Example 70, (1R,2R,3S,4S,6R)-4-[5-(4-Ethylbenzyl)-2,4-dimethoxy-phenyl]-6-(hydroxymethyl)cyclohexane-1,2,3-triol]
8.29 | CCc1ccc(Cc2cc([C@]3(O)C[C@H](CO)[C@@H](O)[C@H](O)[C@H]3O)c(OC)cc2OC)cc1 [Example 69, (1R,2R,3S,4R,5R)-1-[5-(4-Ethylbenzyl)-2,4-dimethoxy-phenyl]-5-(hydroxymethyl)cyclohexane-1,2,3,4-tetraol]
